Experimental findings from US6903113B2, “Urea substituted imidazopyridines” (3M Innovative Properties Company, priority 2000, dated 2005) are described below.

As a reminder, the melting point is the temperature of the solid-liquid transition.

The test system of one series is interferon (α). In words: Cytokine Induction in Human Cells: interferon (α) by ELISA. The class given is cell-based. The conditions noted are these: human PBMC, 18 to 24 hours incubation, compounds generally tested at 30-0.014 μM; read-out: Lowest Effective Concentration Interferon. The text has this:
(§1) An in vitro human blood cell system is used to assess cytokine induction. Activity is based on the measurement of interferon and tumor necrosis factor (α) (IFN and TNF, respectively) secreted into culture media as described by Testerman et. al. In “Cytokine Induction by the Immunomodulators Imiquimod and S-27609”, Journal of Leukocyte Biology, 58, 365-372 (September, 1995).
(§2) Whole blood from healthy human donors is collected by venipuncture into EDTA vacutainer tubes. Peripheral blood mononuclear cells (PBMC) are separated from whole blood by density gradient centrifugation using Histopaque®-1077. Blood is diluted 1:1 with Dulbecco's Phosphate Buffered Saline (DPBS) or Hank's Balanced Salts Solution (HBSS). The PBMC layer is collected and washed twice with DPBS or HBSS and resuspended at 4×10^6 cells/mL in RPMI complete. The PBMC suspension is added to 48 well flat bottom sterile tissue culture plates (Costar, Cambridge, Mass. or Becton Dickinson Labware, Lincoln Park, N.J.) containing an equal volume of RPMI complete media containing test compound.
(§3) The compounds are solubilized in dimethyl sulfoxide (DMSO). The DMSO concentration should not exceed a final concentration of 1% for addition to the culture wells. The compounds are generally tested at concentrations ranging from 30-0.014 μM.
(§4) The solution of test compound is added at 60 μM to the first well containing RPMI complete and serial 3 fold dilutions are made in the wells. The PBMC suspension is then added to the wells in an equal volume, bringing the test compound concentrations to the desired range (30-0.014 μM). The final concentration of PBMC suspension is 2×10^6 cells/mL. The plates are covered with sterile plastic lids, mixed gently and then incubated for 18 to 24 hours at 37° C. in a 5% carbon dioxide atmosphere.
(§5) Following incubation the plates are centrifuged for 10 minutes at 1000 rpm (˜200×g) at 4° C. The cell-free culture supernatant is removed with a sterile polypropylene pipet and transferred to sterile polypropylene tubes. Samples are maintained at −30 to −70° C. until analysis. The samples are analyzed for interferon (α) by ELISA and for tumor necrosis factor (α) by ELISA or IGEN Assay
Interferon (α) concentration is determined by ELISA using a Human Multi-Species kit from PBL Biomedical Laboratories, New Brunswick, N.J. Results are expressed in pg/mL.
(§6) The table below lists the lowest concentration found to induce interferon and the lowest concentration found to induce tumor necrosis factor for each compound.

The test system of series [1] is tumor necrosis factor (α). In words: Cytokine Induction in Human Cells: tumor necrosis factor (α) by ELISA or IGEN Assay. The class given is cell-based. On the set-up: key to Lowest Effective Concentration Tumor Necrosis Factor: A “*” indicates that no induction was seen at any of the tested concentrations. To be noted: human PBMC, 18 to 24 hours incubation, compounds generally tested at 30-0.014 μM; for minimal effective concentration: read-out: Lowest Effective Concentration Tumor Necrosis Factor.
Source text: as §1, §2, §3, §4, §5
Tumor necrosis factor (α) (TNF) concentration is determined using ELISA kits available from Biosource International, Camarillo, Calif. Alternately, the TNF concentration can be determined by Origen® M-Series Immunoassay and read on an IGEN M-8 analyzer from IGEN International, Gaithersburg, Md. The immunoassay uses a human TNF capture and detection antibody pair from Biosource International, Camarillo, Calif. Results are expressed in pg/mL.
as §6
Background: In an ELISA, binding on a coated surface is turned into a signal by an enzyme label.

In turn, `CCCCc1nc2c(N)nc(C)c(C)c2n1CCCCNS(=O)(=O)N(C)C` [Example 6, N′-[4-(4-Amino-2-butyl-6,7-dimethyl-1H-imidazo[4,5-c]pyridin-1-yl)butyl]-N,N-dimethylsulfamide] had a melting point of 129.5 to 131 °C. Besides, the minimal effective concentration with interferon (α) worked out at 0.01 µM. Also, the minimal effective concentration in series [1] turned out to be 0.01 µM.
`CCCCc1nc2c(N)nc(C)c(C)c2n1CCCCNS(C)(=O)=O` [Example 2, N-[4-(4-Amino-2-butyl-6,7-dimethyl-1H-imidazo[4,5-c]pyridin-1-yl)butyl]methanesulfonamide] came in with a melting point of 130 to 130.5 °C. The minimal effective concentration with interferon (α) worked out at 0.0046 µM. In series [1], the minimal effective concentration turned out to be 0.01 µM.
In turn, `Cc1nc(N)c2nc(C)n(CCCCNS(C)(=O)=O)c2c1C` [Example 7, N-[4-(4-amino-2,6,7-trimethyl-1H-imidazo[4,5-c]pyridin-1-yl)butyl]methanesulfonamide] displayed a melting point of 228 to 230 °C. Besides, the minimal effective concentration in the series with interferon (α) worked out at 0.37 µM. Moreover, the “Lowest Effective Concentration Tumor Necrosis Factor” value in series [1] was “*”.
For `Cc1nc(N)c2nc(C)n(CCNC(=O)N3CCOCC3)c2c1C` [Example 15, N-[2-(4-amino-2,6,7-trimethyl-1H-imidazo[4,5-c]pyridin-1-yl)ethyl]morpholin-4-ylcarboxamide], the melting point lay in the range of 219 to 221 °C.
With `CCOCc1nc2c(N)nc(C)c(C)c2n1CCCCNS(C)(=O)=O` [Example 8, N-{4-[4-amino-2-(ethoxymethyl)-6,7-dimethyl-1H-imidazo[4,5-c]pyridin-1-yl]butyl}methanesulfonamide], the melting point lay within 165 to 167 °C. The minimal effective concentration in the series on interferon (α) came out at 0.04 µM. The minimal effective concentration in series [1] worked out at 10 µM.
The corresponding values for `CCCCc1nc2c(N)nc(C)c(C)c2n1CCCCNC(=O)Nc1ccccc1` [Example 4, N-[4-(4-Amino-2-butyl-6,7-dimethyl-1H-imidazo[4,5-c]pyridin-1-yl)butyl]-N′-phenylurea] are 195.8 to 196.8 °C, 0.12 µM and 0.37 µM.
As to `CCOCc1nc2c(N)nc(C)c(C)c2n1CCC1CCN(C(=O)N2CCOCC2)CC1` [Example 12, 2-(ethoxymethyl)-6,7-dimethyl-1-{2-[1-(morpholin-4-ylcarbonyl)piperidin-4-yl]ethyl}-1H-imidazo[4,5-c]pyridin-4-amine], the melting point lay within 158.1 to 160.5 °C.
